Where no end group is shown, it is not given here.
How the values were obtained:
[1] = tested on: E. coli ATCC 25922; assay: FACScan membrane integrity analysis (propidium iodide); assay type: cell-based; settings: E. coli ATCC 25922, 10 μg/mL PI, 4 °C, 30 min, flow cytometry
Method: The membrane integrity measurements were performed with a FACScan instrument (Bectone-Dickinson, San Jose, CA, USA) by using a modified method as described previously. […] As a control, bacteria were exposed to PBS without the peptide. The gate (P1) was defined based on the FSC and SSC properties of E. coli. The FSC threshold was appropriately raised to include the large cell events in the sample and excluded the debris population. Data acquisition was performed using […] Software (Becton Dickinson, San Jose, CA, USA) with a stopping gate of 10,000 total events. Observations were repeated three times at a laser excitation wavelength of 488 nm. Based on the ability of flow cytometers to provide accurate quantification of cell numbers, the counts of PI-positive cells were measured for each peptide.

[2] = tested on: Gram-negative and Gram-positive bacteria; assay: Geometric mean of MIC values over the bacteria tested; assay type: cell-based; settings: MIC >128 μM counted as 256 μM
Method: (§1) MIC measurements were performed in 96-well plates. The peptides were dissolved in 0.2% bovine serum albumin and 0.01% acetic acid, and an appropriate broth was subjected to a series of two-fold dilutions. The final concentration of microbial suspensions was from 2 × 10^5 to 7 × 10^5 colony forming units (CFU)∙mL^−1. Key parameters were volume (50 μL bacterial suspension + 50 μL peptide solution), incubating time (18–24 h), and temperature (37 °C). Each test was performed in three replicates on at least two independent occasions. The Mueller Hilton broth (MHB) (AoBoX, Shanghai, China) without or with microbial cells was regarded as the negative control or positive control, respectively. MICs were recorded at the lowest peptide concentration without visible turbidity and spectrophotometrically by measuring the optical density (OD) at 492 nm (Tecan, Salzburg, Austria).

[3] = LPS binding, BODIPY-TR cadaverine displacement assay; parameters: species or system E. coli; settings: LPS 100 ng/mL, peptide 1.25–40 μg/mL, 1 h, 37 °C, Tris pH 7.4
Method: BODIPY-TR-cadaverine fluorescent dye (BC, Sigma, USA) was used to determine the LPS neutralizing activity of the peptides. A total of 100 ng/mL LPS from E. coli O111:B4 was incubated with 5 μg/mL BC in Tris buffer (50 mM, pH 7.4) for 4 h at room temperature. The peptides were serially diluted to different concentrations (1.25–40 μg/mL) in a 96-well plate and incubated with an equal volume of the LPS-probe mixture for 1 h at 37 °C. The fluorescence was recorded (excitation λ = 580 nm, emission λ = 620 nm) with a spectrofluorophotometer (the Infinite 200 pro, Tecan, China). The values were converted to %ΔF (AU) using the following equation:%ΔF (AU) = (Fobs − F0) / (F100 − F0) × 100 where F0 is the initial fluorescence of BC with LPS; F100 is the BC fluorescence with LPS cells upon the addition of 10 μg∙mL^−1 polymyxin B (the positive control); and Fobs is the observed fluorescence at a given peptide concentration.

[4] = tested on: interleukin-6(IL-6); assay: LPS-induced IL-6 gene expression (qRT-PCR) in RAW264.7; assay type: cell-based, murine; settings: RAW264.7, 100 ng/mL LPS, peptide 10 μg/mL, n = 3
Method: (§2) The RAW264.7 cell culture was prepared using the same method as the cytotoxicity assay. The cells were seeded in 12 wells plates at a given density (5 × 10^5 cells per well); after overnight culture, 100 ng·mL^−1 LPS from E. coli 0111:B4 was added to stimulate the generation of cytokines in the presence or absence of the peptides at concentrations of 10 μg·mL^−1. The mRNA levels of IL-6 and IL-1β were determined by quantitative real-time PCR(qRT-PCR) as previously described. The total RNA was isolated from the RAW264.7 cells using TRIzol according to the manufacturer’s instructions. Total RNA (1 µg) was reverse transcribed by the M-MLV Reverse Transcriptase (Thermo scientific, Waltham, MA, USA). The reactions were incubated in chronological arrangement with the following parameters: at 25 °C for 20 min, at 42 °C for 60 min, and at 70 °C for 10 min. The obtained cDNA samples were determined by qRT-PCR with SYBR green I fluorescence dye (Takara Bio Inc., Kusatsu, Japan). Relative quantifications of the mRNA expression of the target genes were calculated through the comparative threshold cycle number for each sample (2^−ΔΔCT). Gene expression was normalized to the corresponding β-actin level. The primers for qRT-PCR in this study are shown below: IL-6-F: […]; IL-6-R: […]; IL-1β-F: […]; and IL-1β-R: […].

[5] = tested on: interleukin-1β(IL-1β); assay: LPS-induced IL-1β gene expression (qRT-PCR) in RAW264.7; assay type: cell-based, murine; settings: RAW264.7, 100 ng/mL LPS, peptide 10 μg/mL, n = 3
Method: as §2

[6] = tested on: S. faecalis ATCC 29212; assay: MIC assay, S. faecalis ATCC 29212; assay type: cell-based; settings: two-fold dilution in 96-well plates, MHB, 2-7 × 10^5 CFU/mL, 18–24 h, 37 °C
Method: as §1

[7] = tested on: P. aeruginosa ATCC 27853; assay: MIC assay, P. aeruginosa ATCC 27853; assay type: cell-based; settings: two-fold dilution in 96-well plates, MHB, 2-7 × 10^5 CFU/mL, 18–24 h, 37 °C
Method: as §1

[8] = tested on: S. epidermidis ATCC 12228; assay: MIC assay, S. epidermidis ATCC 12228; assay type: cell-based; settings: two-fold dilution in 96-well plates, MHB, 2-7 × 10^5 CFU/mL, 18–24 h, 37 °C
Method: as §1

[9] = tested on: S. aureus ATCC 29213; assay: MIC assay, S. aureus ATCC 29213; assay type: cell-based; settings: two-fold dilution in 96-well plates, MHB, 2-7 × 10^5 CFU/mL, 18–24 h, 37 °C
Method: as §1

[10] = tested on: human embryonic kidney cells (HEK293T); assay: MTT cytotoxicity assay, HEK293T; assay type: cell-based; settings: peptide 64 μM, 18–24 h, 37 °C, OD 570 nm, n = 3
Method: (§3) The Roswell Park Memorial Institute-1640 (RPMI-1640) (Invitrogen, Carlsbad, CA, USA) and Dulbecco’s modified Eagle’s medium-high glucose (DMEM) (Gibco, China) were supplemented with 100 μg∙mL^−1 streptomycin sulfate, 100 U∙mL^−1 penicillin, and 10% (v/v) fetal bovine serum (Hyclone, Logan, UT, USA). These were used to culture the RAW264.7 and HEK293T cells, respectively. The peptides were added to cell cultures (1.0–2.0 × 10^4 cells/well) at different final concentrations (1–64 µM) in 96-well plates for 18–24 h at 37 °C in 5% CO2, and 3-(4,5-dimethylthiazol-2-yl)-2,5-diphenyltetrazolium bromide (MTT) (50 µL, 0.5 mg∙mL^−1) was injected and incubated with cell cultures for 4 h at 37 °C. Finally, the centrifuged cells without the supernatants were mixed with 150 µL of dimethyl sulfoxide to dissolve the formazan crystals that formed. The optical density (OD) was recorded by a microplate reader (Tecan, Salzburg, Austria) at 570 nm.

[11] = tested on: S. typhimurium ATCC 14028; assay: MIC assay, S. typhimurium ATCC 14028; assay type: cell-based; settings: two-fold dilution in 96-well plates, MHB, 2-7 × 10^5 CFU/mL, 18–24 h, 37 °C
Method: as §1

[12] = tested on: S. pullorum C79-13; assay: MIC assay, S. pullorum C79-13; assay type: cell-based; settings: two-fold dilution in 96-well plates, MHB, 2-7 × 10^5 CFU/mL, 18–24 h, 37 °C
Method: as §1

[13] = tested on: murine macrophage cell line (RAW264.7); assay: MTT cytotoxicity assay, RAW264.7; assay type: cell-based; settings: RAW264.7, peptide 64 μM, 18–24 h, 37 °C, OD 570 nm, n = 3
Method: as §3

[14] = tested on: E. coli ATCC25922; assay: MIC assay, E. coli ATCC25922; assay type: cell-based; settings: two-fold dilution in 96-well plates, MHB, 2-7 × 10^5 CFU/mL, 18–24 h, 37 °C, three replicates on at least two occasions
Method: as §1

[15] = tested on: E. coli UB1005; assay: MIC assay, E. coli UB1005; assay type: cell-based; settings: two-fold dilution in 96-well plates, MHB, 2-7 × 10^5 CFU/mL, 18–24 h, 37 °C
Method: as §1

[16] = tested on: B. subtilis CMCC 63501; assay: MIC assay, B. subtilis CMCC 63501; assay type: cell-based; settings: two-fold dilution in 96-well plates, MHB, 2-7 × 10^5 CFU/mL, 18–24 h, 37 °C
Method: as §1

[17] = tested on: human red blood cells (hRBCs); assay: Hemolytic activity assay; assay type: cell-based; settings: lowest peptide concentration that induces 5% hemolysis; hRBCs in PBS pH 7.4, 1 h, 37 °C, OD570
Method: Hemolytic activity measurements were performed to evaluate the effect of peptides on hemoglobin release levels by erythrocyte lysis. The experimental protocol was reviewed and approved by the ethics committee of the Northeast Agricultural University Hospital, and the experimental method was carried out in accordance with the approved guidelines and regulations. A total of 1 mL of fresh hRBCs was collected and diluted 10-fold with PBS (pH 7.4). A quantity of 50 μL of the hRBCs solution was incubated with 50 μL of serially diluted peptides dissolved in PBS for 1 h at 37 °C. hRBC suspension treated with 0.1% Triton X-100 was employed as a positive control and an untreated hRBC suspension was used as a negative control. A total of 50 μL of the supernatant was collected from the mixture after centrifugation (1000g, 5 min, 4 °C) and transferred to a new 96-well microplate. The percent hemolysis was calculated using the following equation: Hemolysis (%) = [(OD570 of the treated sample — OD570 of the negative control)/(OD570 of the positive control — OD570 of the negative control)] × 100%.

CC[C@H](C)[C@H](NC(=O)CN)C(=O)NCC(=O)N[C@@H](C)C(=O)N[C@H](C(=O)N[C@@H](CC(C)C)C(=O)N[C@@H](CCCCN)C(=O)N[C@H](C(=O)N[C@@H](CC(C)C)C(=O)N[C@H](C(=O)N[C@H](C(=O)NCC(=O)N[C@@H](CC(C)C)C(=O)N1CCC[C@H]1C(=O)N[C@@H](C)C(=O)N[C@@H](CC(C)C)C(=O)N[C@H](C(=O)N[C@@H](CO)C(=O)N[C@@H](Cc1c[nH]c2ccccc12)C(=O)N[C@H](C(=O)N[C@@H](CCCCN)C(=O)N[C@@H](CCCNC(=N)N)C(=O)N[C@@H](CCCCN)C(=O)N[C@@H](CCCNC(=N)N)C(=O)N[C@@H](CCC(N)=O)C(=O)N[C@@H](CCC(N)=O)C(N)=O)[C@@H](C)CC)[C@@H](C)CC)[C@@H](C)O)[C@@H](C)O)C(C)C)C(C)C [Melittin]
percentage of PI-positive cells ([1]; 1/2 × MIC): 50.5% | percentage of PI-positive cells ([1]; 1 × MIC): 77.5% | GM (geometric mean of MIC values) [2]: 1.3 µM | binding to LPS, %ΔF (AU) of BODIPY-TR cadaverine [3]: concentration-dependent increase | gene expression of IL-6 in LPS-treated cells [4]: markedly decreased | gene expression of IL-1β in LPS-treated cells [5]: markedly decreased

WFKAAAKAAAKFW-NH2 [WF]
MIC [6]: 32 µM | MIC [7]: 16 µM | MIC [8]: 16 µM | MIC [9]: 8 µM | cell survival rate [10]: 91% | MIC [11]: 32 µM | MIC [12]: 8 µM | cell survival rate [13]: 92% | MIC [14]: 4 µM | MIC [15]: 4 µM | MIC [16]: 8 µM | MHC5 (minimum hemolysis concentration 5%) [17]: 256 µM

WIKAAAKAAAKIW-NH2 [WI]
MIC [6]: 32 µM | MIC [7]: 32 µM | MIC [8]: 32 µM | MIC [9]: 32 µM | cell survival rate [10]: 96% | MIC [11]: 32 µM | MIC [12]: 8 µM | cell survival rate [13]: 100% | MIC [14]: 8 µM | MIC [15]: 8 µM | MIC [16]: 8 µM | MHC5 (minimum hemolysis concentration 5%) [17]: 256 µM

WVKAAAKAAAKVW-NH2 [WV]
MIC [6]: 64 µM | MIC [7]: >128 µM | MIC [8]: >128 µM | MIC [9]: >128 µM | cell survival rate [10]: 93% | MIC [11]: >128 µM | MIC [12]: 64 µM | cell survival rate [13]: 93% | MIC [14]: 32 µM | MIC [15]: >128 µM | MIC [16]: >128 µM | MHC5 (minimum hemolysis concentration 5%) [17]: >256 µM

WWKAAAKAAAKWW-NH2 [WW]
MIC [6]: 4 µM | MIC [7]: 8 µM | MIC [8]: 4 µM | MIC [9]: 4 µM | cell survival rate [10]: 43% | MIC [11]: 8 µM | MIC [12]: 2 µM | cell survival rate [13]: 63% | MIC [14]: 2 µM | MIC [15]: 4 µM | MIC [16]: 4 µM | MHC5 (minimum hemolysis concentration 5%) [17]: 256 µM
